In brackets after ≈: the same amount, converted by molar mass.
Tests used:
Format in all cases: cell-based
[1] = tested on: Osteosarcoma cell line 143B; assay: in vitro cell proliferation inhibition (CCK-8); conditions: Homo sapiens, 48 h incubation, read-out: IC50
Source text: (§1) Osteosarcoma cell line 143B, HOS, and U2, liver cancer cell line HepG2, breast cancer cell line MDA-MB-231 and T47D, gastric cancer cell line AGS, BGC-823, and SGC-7901, cervical cancer cells Hela, lung cancer cells A549, intestinal cancer cells Caco2, mouse glioma cells BV-2, human prostate cancer cells PC3, human thyroid cancer cell line BCPAP, human normal liver cell line L02, human normal gastric cell line GES, human umbilical vein epithelial cells HUVEC, and human embryonic lung fibroblasts WI-38 were cultured in a DMEM medium containing 10% fetal bovine serum and 1×HEPES in a humid incubator (37° C., 5% CO2). The cells were passaged with trypsin-EDTA in logarithmic phase. Certain density of cells (AGS, T47D, Caco2, BCPAP, GES, HUVEC 1×10^5 cells per well; HepG2, MDA-MB-231, BGC-823, A549, PC3, L02 8×10^4 cells per well; 143B, HOS, U2, SGC-7901, Hela, BV-2, 5×10^4 cells per well; WI-38, 3×10^5 cells per well) were inoculated in a 96-well plate, and cultured for 24 h before treatment. After replacing a fresh medium, 12.5 mg/L to 400 mg/L of quercetin, quercetin 3-methyl ether, and quercetin 3,3′-dimethyl ether dissolved with DMSO were added into the medium (a final volume ratio was 0.1%, and the DMSO was used as a […]). After incubation for 48 h, a complete medium was replaced with a serum-free medium containing 10% CCK-8 reagent. The absorbance at 450 nm and 620 nm was measured separately after the cells were incubated for 1 h. Each experiment was repeated three times independently.
as §1, with “400 mg/L,” for “400 mg/L”, “of” for “of quercetin, quercetin 3-methyl ether, and”, “DMSO was” for “DMSO were”, “into a” for “into the”

[2] = tested on: Osteosarcoma cell line HOS; assay: in vitro cell proliferation inhibition (CCK-8); conditions: 48 h incubation, read-out: IC50
Source text: as §1
as §1, with “400 mg/L,” for “400 mg/L”, “of” for “of quercetin, quercetin 3-methyl ether, and”, “DMSO was” for “DMSO were”, “into a” for “into the”

[3] = tested on: Osteosarcoma cell line U2; assay: in vitro cell proliferation inhibition (CCK-8); conditions: 48 h incubation, read-out: IC50
Source text: as §1
as §1, with “400 mg/L,” for “400 mg/L”, “of” for “of quercetin, quercetin 3-methyl ether, and”, “DMSO was” for “DMSO were”, “into a” for “into the”

[4] = tested on: breast cancer cell line MDA-MB-231; assay: in vitro cell proliferation inhibition (CCK-8); conditions: Homo sapiens, 48 h incubation, read-out: IC50
Source text: as §1
as §1, with “400 mg/L,” for “400 mg/L”, “of” for “of quercetin, quercetin 3-methyl ether, and”, “DMSO was” for “DMSO were”, “into a” for “into the”

[5] = tested on: breast cancer cell line T47D; assay: in vitro cell proliferation inhibition (CCK-8); conditions: Homo sapiens, 48 h incubation, read-out: IC50
Source text: as §1
as §1, with “400 mg/L,” for “400 mg/L”, “of” for “of quercetin, quercetin 3-methyl ether, and”, “DMSO was” for “DMSO were”, “into a” for “into the”

[6] = tested on: cervical cancer cells Hela; assay: in vitro cell proliferation inhibition (CCK-8); conditions: Homo sapiens, 48 h incubation, read-out: IC50
Source text: as §1
as §1, with “400 mg/L,” for “400 mg/L”, “of” for “of quercetin, quercetin 3-methyl ether, and”, “DMSO was” for “DMSO were”, “into a” for “into the”

[7] = tested on: gastric cancer cell line AGS; assay: in vitro cell proliferation inhibition (CCK-8); conditions: 48 h incubation, read-out: IC50
Source text: as §1
as §1, with “400 mg/L,” for “400 mg/L”, “of” for “of quercetin, quercetin 3-methyl ether, and”, “DMSO was” for “DMSO were”, “into a” for “into the”

[8] = tested on: gastric cancer cell line BGC-823; assay: in vitro cell proliferation inhibition (CCK-8); conditions: Homo sapiens, BGC-823, BGC823, 48 h incubation, read-out: IC50
Source text: as §1
as §1, with “400 mg/L,” for “400 mg/L”, “of” for “of quercetin, quercetin 3-methyl ether, and”, “DMSO was” for “DMSO were”, “into a” for “into the”

[9] = tested on: gastric cancer cell line SGC-7901; assay: in vitro cell proliferation inhibition (CCK-8); conditions: Homo sapiens, SGC-7901, SGC7901, 48 h incubation, read-out: IC50
Source text: as §1
as §1, with “400 mg/L,” for “400 mg/L”, “of” for “of quercetin, quercetin 3-methyl ether, and”, “DMSO was” for “DMSO were”, “into a” for “into the”

[10] = tested on: human prostate cancer cells PC3; assay: in vitro cell proliferation inhibition (CCK-8); conditions: Homo sapiens, 48 h incubation, read-out: IC50
Source text: as §1
as §1, with “400 mg/L,” for “400 mg/L”, “of” for “of quercetin, quercetin 3-methyl ether, and”, “DMSO was” for “DMSO were”, “into a” for “into the”

[11] = tested on: human thyroid cancer cell line BCPAP; assay: in vitro cell proliferation inhibition (CCK-8); conditions: Homo sapiens, 48 h incubation, read-out: IC50
Source text: as §1
as §1, with “400 mg/L,” for “400 mg/L”, “of” for “of quercetin, quercetin 3-methyl ether, and”, “DMSO was” for “DMSO were”, “into a” for “into the”

[12] = tested on: intestinal cancer cells Caco2; assay: in vitro cell proliferation inhibition (CCK-8); conditions: Homo sapiens, Caco-2, 48 h incubation, read-out: IC50
Source text: as §1
as §1, with “400 mg/L,” for “400 mg/L”, “of” for “of quercetin, quercetin 3-methyl ether, and”, “DMSO was” for “DMSO were”, “into a” for “into the”

[13] = tested on: liver cancer cell line HepG2; assay: in vitro cell proliferation inhibition (CCK-8); conditions: Homo sapiens, 48 h incubation, read-out: IC50
Source text: as §1
as §1, with “400 mg/L,” for “400 mg/L”, “of” for “of quercetin, quercetin 3-methyl ether, and”, “DMSO was” for “DMSO were”, “into a” for “into the”

[14] = tested on: lung cancer cells A549; assay: in vitro cell proliferation inhibition (CCK-8); conditions: Homo sapiens, 48 h incubation, read-out: IC50
Source text: as §1
as §1, with “400 mg/L,” for “400 mg/L”, “of” for “of quercetin, quercetin 3-methyl ether, and”, “DMSO was” for “DMSO were”, “into a” for “into the”

[15] = tested on: mouse glioma cells BV-2; assay: in vitro cell proliferation inhibition (CCK-8); conditions: Mus musculus, Glioma cell, BV2, 48 h incubation, read-out: IC50
Source text: as §1
as §1, with “400 mg/L,” for “400 mg/L”, “of” for “of quercetin, quercetin 3-methyl ether, and”, “DMSO was” for “DMSO were”, “into a” for “into the”

[16] = tested on: HepG2 cells; assay: scratch test, metastasis capacity; conditions: 1 mg/L, after 1 d (24 h) of incubation
Protocol: HepG2 cells with a cell density of 5×10^5/mL were plated on a 6-well plate (1 mL per well), added to a DMEM medium containing 10% fetal calf serum, and cultured overnight to form a monolayer of cells. A horizontal scratch was scratched on the monolayer of cells with a pipette tip of 200 μL, washed with PBS 3 times, added into a DMEM medium containing 10% fetal bovine serum, and then added with 1 mg/L of a quercetin 3,3′-dimethyl ether solution, while DMSO was used as a solvent control, and then incubated for 24 h.

IC50 [1]: 21.6 µg/mL (≈ 65.5 µM)
IC50 [2]: 18.6 µg/mL (≈ 56.3 µM)
IC50 [3]: 49.5 µg/mL (≈ 150 µM)
IC50 [4]: 11.4 µg/mL (≈ 34.5 µM)
IC50 [5]: 13.3 µg/mL (≈ 40.4 µM)
IC50 [6]: 11.1 µg/mL (≈ 33.7 µM)
IC50 [7]: 15.8 µg/mL (≈ 47.9 µM)
IC50 [8]: 26.1 µg/mL (≈ 78.9 µM)
IC50 [9]: 28.4 µg/mL (≈ 85.9 µM)
IC50 [10]: 31.3 µg/mL (≈ 94.7 µM)
IC50 [11]: 12.3 µg/mL (≈ 37.2 µM)
IC50 [12]: 21.4 µg/mL (≈ 64.8 µM)
IC50 [13]: 5.85 µg/mL (≈ 17.7 µM)
IC50 [14]: 17.4 µg/mL (≈ 52.6 µM)
IC50 [15]: 21.1 µg/mL (≈ 63.9 µM)
SMILES: COc1cc(-c2oc3cc(O)cc(O)c3c(=O)c2OC)ccc1O [Quercetin 3,3′-dimethyl ether, quercetin 3,3′-dimethyl ether]
intercellular space (scratch) versus control group [16]: significantly higher
